Data as given in US20160158317A1, “Antimicrobial Peptide Variants and Polynucleotides Encoding Same” (Adenium Biotech A/S, priority 2010, published 2016).
Where a SMILES comes first, the peptide text is derived from it. Bridges are numbered along the chain shown (N, C = ends).

Assay: Determination of the protein binding (90% serum, 30 kDa filter, HPLC)
Type: in vitro ADME
Details: serum
Procedure: Protein binding assays were performed as follows. The purified peptides were mixed with 90% serum and centrifuged through a 30 kDa filter. The ultra-filtrate and the non filtrated serum samples were quantified by HPLC measurements and the protein binding was subsequently calculated.

Going from `CC(C)[C@@H]1NC(=O)CNC(=O)[C@H](CC(N)=O)NC(=O)[C@H](CCCNC(=N)N)NC(=O)[C@H](Cc2ccc(O)cc2)NC(=O)[C@H](C(C)C)NC(=O)[C@@H]2CSSC[C@H](NC(=O)[C@H](CCCNC(=N)N)NC(=O)[C@H](CCCNC(=N)N)NC1=O)C(=O)N[C@@H](Cc1ccc(O)cc1)C(=O)N[C@@H](CCCNC(=N)N)C(=O)N[C@@H](CCCNC(=N)N)C(=O)N[C@H](C(=O)N[C@@H](CC(N)=O)C(=O)O)CSSC[C@H](NC(=O)[C@H](Cc1ccccc1)NC(=O)CN)C(=O)NCC(=O)N[C@@H](CCCNC(=N)N)C(=O)N[C@@H](C(C)C)C(=O)N2` [compound 170] (H-GFCGRVCVYRNGVRRCYRRCN-OH; disulfide 3-20, 7-16 (inferred); N-terminus and C-terminus assumed) to `CC(C)[C@@H]1NC(=O)CNC(=O)[C@H](CC(N)=O)NC(=O)[C@H](CCCNC(=N)N)NC(=O)[C@H](Cc2ccc(O)cc2)NC(=O)[C@H](C(C)C)NC(=O)[C@@H]2CSSC[C@H](NC(=O)[C@H]([C@@H](C)O)NC(=O)[C@H](CCCNC(=N)N)NC1=O)C(=O)N[C@@H](Cc1ccc(O)cc1)C(=O)N[C@@H](CCCNC(=N)N)C(=O)N[C@@H](CCCNC(=N)N)C(=O)N[C@H](C(=O)N[C@@H](CC(N)=O)C(=O)O)CSSC[C@H](NC(=O)[C@H](Cc1ccccc1)NC(=O)CN)C(=O)NCC(=O)N[C@@H](CCCNC(=N)N)C(=O)N[C@@H](C(C)C)C(=O)N2` [compound 171] (H-GFCGRVCVYRNGVRTCYRRCN-OH; disulfide 3-20, 7-16), the fraction unbound rises from 0.13 to 0.16.

Compared with `CC(C)[C@@H]1NC(=O)CNC(=O)[C@H](CC(N)=O)NC(=O)[C@H](CCCNC(=N)N)NC(=O)[C@H](CCCNC(=N)N)NC(=O)[C@H](C(C)C)NC(=O)[C@@H]2CSSC[C@H](NC(=O)[C@H](C(C)C)NC(=O)[C@H](CCCNC(=N)N)NC1=O)C(=O)N[C@@H](Cc1ccc(O)cc1)C(=O)N[C@@H](CCCNC(=N)N)C(=O)N[C@@H](CCCNC(=N)N)C(=O)N[C@H](C(=O)N[C@@H](CC(N)=O)C(=O)O)CSSC[C@H](NC(=O)[C@H](Cc1ccccc1)NC(=O)CN)C(=O)NCC(=O)N[C@@H](CCCNC(=N)N)C(=O)N[C@@H](C(C)C)C(=O)N2` [compound 172] (H-GFCGRVCVRRNGVRVCYRRCN-OH; disulfide 3-20, 7-16 (inferred); N-terminus and C-terminus assumed), `CC(C)[C@@H]1NC(=O)CNC(=O)[C@H](CC(N)=O)NC(=O)[C@H](CCCNC(=N)N)NC(=O)[C@H](Cc2ccc(O)cc2)NC(=O)[C@H](C(C)C)NC(=O)[C@@H]2CSSC[C@H](NC(=O)[C@H](C(C)C)NC(=O)[C@H](CCCNC(=N)N)NC1=O)C(=O)N[C@@H](CO)C(=O)N[C@@H](CCCNC(=N)N)C(=O)N[C@@H](CCCNC(=N)N)C(=O)N[C@H](C(=O)N[C@@H](CC(N)=O)C(=O)O)CSSC[C@H](NC(=O)[C@H](Cc1ccccc1)NC(=O)CN)C(=O)N[C@@H](Cc1ccc(O)cc1)C(=O)N[C@@H](CCCNC(=N)N)C(=O)N[C@@H](C(C)C)C(=O)N2` [compound 211] (H-GFCYRVCVYRNGVRVCSRRCN-OH; disulfide 3-20, 7-16 (inferred); N-terminus and C-terminus assumed) is lower in fraction unbound: 0.12 for the first, 0.04 for the second.

Compared with `CC(C)[C@@H]1NC(=O)CNC(=O)[C@H](CC(N)=O)NC(=O)[C@H](CCCNC(=N)N)NC(=O)[C@H](CCCCN)NC(=O)[C@H](C(C)C)NC(=O)[C@@H]2CSSC[C@H](NC(=O)[C@H](CCCCN)NC(=O)[C@H](CCCNC(=N)N)NC1=O)C(=O)N[C@@H](Cc1ccc(O)cc1)C(=O)N[C@@H](CCCNC(=N)N)C(=O)N[C@@H](CCCNC(=N)N)C(=O)N[C@H](C(=O)N[C@@H](CC(N)=O)C(=O)O)CSSC[C@H](NC(=O)[C@H](Cc1ccccc1)NC(=O)CN)C(=O)N[C@@H]([C@@H](C)O)C(=O)N[C@@H](Cc1ccc(O)cc1)C(=O)N[C@@H](C(C)C)C(=O)N2` [compound 195] (H-GFCTYVCVKRNGVRKCYRRCN-OH; disulfide 3-20, 7-16 (inferred); N-terminus and C-terminus assumed), `CC(C)[C@@H]1NC(=O)CNC(=O)[C@H](CC(N)=O)NC(=O)[C@H](CCCNC(=N)N)NC(=O)[C@H](Cc2ccc(O)cc2)NC(=O)[C@H](C(C)C)NC(=O)[C@@H]2CSSC[C@H](NC(=O)[C@H](CO)NC(=O)[C@H](CCCNC(=N)N)NC1=O)C(=O)N[C@@H](Cc1ccc(O)cc1)C(=O)N[C@@H](CCCNC(=N)N)C(=O)N[C@@H](CCCNC(=N)N)C(=O)N[C@H](C(=O)N[C@@H](CC(N)=O)C(=O)O)CSSC[C@H](NC(=O)[C@H](Cc1ccccc1)NC(=O)CN)C(=O)N[C@@H](Cc1ccc(O)cc1)C(=O)N[C@@H](CCCCN)C(=O)N[C@@H](C(C)C)C(=O)N2` [compound 206] (H-GFCYKVCVYRNGVRSCYRRCN-OH; disulfide 3-20, 7-16 (inferred); N-terminus and C-terminus assumed) is higher in fraction unbound: 0.05 for the first, 0.14 for the second.

Compared with `CC(C)[C@@H]1NC(=O)CNC(=O)[C@H](CC(N)=O)NC(=O)[C@H](CCCNC(=N)N)NC(=O)[C@H](Cc2ccc(O)cc2)NC(=O)[C@H](C(C)C)NC(=O)[C@@H]2CSSC[C@H](NC(=O)[C@H](CCCNC(=N)N)NC(=O)[C@H](CCCNC(=N)N)NC1=O)C(=O)N[C@@H](Cc1ccc(O)cc1)C(=O)N[C@@H](CCCNC(=N)N)C(=O)N[C@@H](CCCNC(=N)N)C(=O)N[C@H](C(=O)N[C@@H](CC(N)=O)C(=O)O)CSSC[C@H](NC(=O)[C@H](Cc1ccccc1)NC(=O)CN)C(=O)N[C@@H](Cc1ccc(O)cc1)C(=O)N[C@@H](CC(N)=O)C(=O)N[C@@H](C(C)C)C(=O)N2` [compound 207] (H-GFCYNVCVYRNGVRRCYRRCN-OH; disulfide 3-20, 7-16 (inferred); N-terminus and C-terminus assumed), `CC(C)[C@@H]1NC(=O)CNC(=O)[C@H](CC(N)=O)NC(=O)[C@H](CCCNC(=N)N)NC(=O)[C@H](Cc2ccc(O)cc2)NC(=O)[C@H](C(C)C)NC(=O)[C@@H]2CSSC[C@H](NC(=O)[C@H]([C@@H](C)O)NC(=O)[C@H](CCCNC(=N)N)NC1=O)C(=O)N[C@@H](Cc1ccc(O)cc1)C(=O)N[C@@H](CCCNC(=N)N)C(=O)N[C@@H](CCCNC(=N)N)C(=O)N[C@H](C(=O)N[C@@H](CC(N)=O)C(=O)O)CSSC[C@H](NC(=O)[C@H](Cc1ccccc1)NC(=O)CN)C(=O)N[C@@H](Cc1ccc(O)cc1)C(=O)N[C@@H](CCCNC(=N)N)C(=O)N[C@@H](C(C)C)C(=O)N2` [compound 209] (H-GFCYRVCVYRNGVRTCYRRCN-OH; disulfide 3-20, 7-16 (inferred); N-terminus and C-terminus assumed) is higher in fraction unbound: 0.09 for the first, 0.11 for the second.

Going from `CC(C)[C@@H]1NC(=O)CNC(=O)[C@H](CC(N)=O)NC(=O)[C@H](CCCNC(=N)N)NC(=O)[C@H](Cc2ccc(O)cc2)NC(=O)[C@H](C(C)C)NC(=O)[C@@H]2CSSC[C@H](NC(=O)[C@H](C(C)C)NC(=O)[C@H](CCCNC(=N)N)NC1=O)C(=O)N[C@@H](Cc1c[nH]cn1)C(=O)N[C@@H](CCCNC(=N)N)C(=O)N[C@@H](CCCNC(=N)N)C(=O)N[C@H](C(=O)N[C@@H](CC(N)=O)C(=O)O)CSSC[C@H](NC(=O)[C@H](Cc1ccccc1)NC(=O)CN)C(=O)N[C@@H](Cc1ccc(O)cc1)C(=O)N[C@@H](CCCNC(=N)N)C(=O)N[C@@H](C(C)C)C(=O)N2` [compound 210] (H-GFCYRVCVYRNGVRVCHRRCN-OH; disulfide 3-20, 7-16 (inferred); N-terminus and C-terminus assumed) to `CC(C)[C@@H]1NC(=O)CNC(=O)[C@H](CC(N)=O)NC(=O)[C@H](CCCNC(=N)N)NC(=O)[C@H](CCCNC(=N)N)NC(=O)[C@H](C)NC(=O)[C@@H]2CSSC[C@H](NC(=O)[C@H](C(C)C)NC(=O)[C@H](CCCNC(=N)N)NC1=O)C(=O)N[C@@H](Cc1ccc(O)cc1)C(=O)N[C@@H](CCCNC(=N)N)C(=O)N[C@@H](CCCNC(=N)N)C(=O)N[C@H](C(=O)N[C@@H](CC(N)=O)C(=O)O)CSSC[C@H](NC(=O)[C@H](Cc1ccccc1)NC(=O)CN)C(=O)N[C@@H](Cc1c[nH]c3ccccc13)C(=O)N[C@@H](Cc1c[nH]cn1)C(=O)N[C@@H](C(C)C)C(=O)N2` [compound 218] (H-GFCWHVCARRNGVRVCYRRCN-OH; disulfide 3-20, 7-16 (inferred); N-terminus and C-terminus assumed), the fraction unbound falls from 0.11 to 0.01.

Compared with `CC(C)[C@@H]1NC(=O)[C@@H]2CSSC[C@H](NC(=O)[C@H](CO)NC(=O)[C@H](CCCNC(=N)N)NC(=O)[C@H](C)NC(=O)CNC(=O)[C@H](CC(N)=O)NC(=O)[C@H](CCCNC(=N)N)NC(=O)[C@H](Cc3ccc(O)cc3)NC1=O)C(=O)N[C@@H](Cc1ccc(O)cc1)C(=O)N[C@@H](CCCNC(=N)N)C(=O)N[C@@H](CCCNC(=N)N)C(=O)N[C@H](C(=O)N[C@@H](CC(N)=O)C(=O)O)CSSC[C@H](NC(=O)[C@H](Cc1ccccc1)NC(=O)CN)C(=O)N[C@@H](Cc1c[nH]c3ccccc13)C(=O)N[C@@H](Cc1c[nH]cn1)C(=O)N[C@@H](C(C)C)C(=O)N2` [compound 213] (H-GFCWHVCVYRNGARSCYRRCN-OH; disulfide 3-20, 7-16 (inferred); N-terminus and C-terminus assumed), `CC(C)[C@@H]1NC(=O)[C@H](Cc2c[nH]cn2)NC(=O)[C@H](Cc2c[nH]c3ccccc23)NC(=O)[C@@H](NC(=O)[C@H](Cc2ccccc2)NC(=O)CN)CSSC[C@@H](C(=O)N[C@@H](CC(N)=O)C(=O)O)NC(=O)[C@H](CCCNC(=N)N)NC(=O)[C@H](CCCNC(=N)N)NC(=O)[C@H](Cc2ccc(O)cc2)NC(=O)[C@@H]2CSSC[C@H](NC1=O)C(=O)N[C@@H](Cc1c[nH]cn1)C(=O)N[C@@H](Cc1ccc(O)cc1)C(=O)N[C@@H](CCCNC(=N)N)C(=O)N[C@@H](CC(N)=O)C(=O)N[C@@H](CO)C(=O)N[C@@H](C(C)C)C(=O)N[C@@H](CCCNC(=N)N)C(=O)N[C@@H](C(C)C)C(=O)N2` [compound 219] (H-GFCWHVCHYRNSVRVCYRRCN-OH; disulfide 3-20, 7-16 (inferred); N-terminus and C-terminus assumed) is lower in fraction unbound: 0.05 for the first, 0.01 for the second.
